Measured values from PubChem BioAssay (NCI).
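Five compound concentrations were applied to cells in 96-well plates for 48 hours; endpoints were derived by simple linear interpolation of the resulting dose-response curve. Here, GI50 denotes the concentration required for 50% inhibition of growth. TGI marks complete inhibition of growth.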

Experiments:
Test in all cases: inhibition of tumour cell growth, NCI panel, 48 h
SF-295 CNS = system: SF-295 CNS
EKVX NSCLC = system: EKVX NSCLC
IGROV1 ovarian = system: IGROV1 ovarian
ACHN renal = system: ACHN renal
SNB-75 CNS = system: SNB-75 CNS
MCF7 breast = system: MCF7 breast
OVCAR-4 ovarian = system: OVCAR-4 ovarian
HCT-15 colon = system: HCT-15 colon
DU-145 prostate = system: DU-145 prostate
MDA-MB-231 breast = system: MDA-MB-231 breast
SK-MEL-28 melanoma = system: SK-MEL-28 melanoma
A498 renal = system: A498 renal
T-47D breast = system: T-47D breast
M14 melanoma = system: M14 melanoma
786-0 renal = system: 786-0 renal
HOP-62 NSCLC = system: HOP-62 NSCLC
MOLT-4 leukemia = system: MOLT-4 leukemia
CAKI-1 renal = system: CAKI-1 renal
MDA-MB-435 = system: MDA-MB-435
A549 NSCLC = system: A549 NSCLC
RPMI-8226 leukemia = system: RPMI-8226 leukemia
OVCAR-5 ovarian = system: OVCAR-5 ovarian
SNB-19 CNS = system: SNB-19 CNS
UACC-257 melanoma = system: UACC-257 melanoma
CCRF-CEM leukemia = system: CCRF-CEM leukemia
RXF 393 renal = system: RXF 393 renal
BT-549 breast = system: BT-549 breast
LOX IMVI melanoma = system: LOX IMVI melanoma
OVCAR-8 ovarian = system: OVCAR-8 ovarian
OVCAR-3 ovarian = system: OVCAR-3 ovarian
SK-OV-3 ovarian = system: SK-OV-3 ovarian
SF-539 CNS = system: SF-539 CNS
NCI/ADR-RES ovarian = system: NCI/ADR-RES ovarian
TK-10 renal = system: TK-10 renal
HCT-116 colon = system: HCT-116 colon
KM12 colon = system: KM12 colon
SR leukemia = system: SR leukemia
UACC-62 melanoma = system: UACC-62 melanoma
NCI-H226 lung = system: NCI-H226 lung
NCI-H522 lung = system: NCI-H522 lung
SF-268 CNS = system: SF-268 CNS
SK-MEL-5 melanoma = system: SK-MEL-5 melanoma
HCC-2998 colon = system: HCC-2998 colon
HS 578T breast = system: HS 578T breast
NCI-H460 lung = system: NCI-H460 lung
COLO 205 colon = system: COLO 205 colon
SW-620 colon = system: SW-620 colon
U251 CNS = system: U251 CNS
HT29 colon = system: HT29 colon
HL-60(TB) leukemia = system: HL-60(TB) leukemia
K-562 leukemia = system: K-562 leukemia
SK-MEL-2 melanoma = system: SK-MEL-2 melanoma
SN12C renal = system: SN12C renal
NCI-H23 lung = system: NCI-H23 lung
MALME-3M melanoma = system: MALME-3M melanoma
HOP-92 NSCLC = system: HOP-92 NSCLC
PC-3 prostate = system: PC-3 prostate
UO-31 renal = system: UO-31 renal

COc1cnc2c(c1)C(=O)c1c-2n(CCCNCC2CC2)c(=O)c2cc(F)ccc12 showed a GI50 (SF-295 CNS) of 0.295 µM, a TGI (SF-295 CNS) of 1.68 µM and a GI50 (EKVX NSCLC) of 1.51 µM. For the same compound, the TGI (EKVX NSCLC) was 5.64 µM, the GI50 (IGROV1 ovarian) was 0.641 µM and the TGI (IGROV1 ovarian) was 4.33 µM. It also gave a GI50 (ACHN renal) of 0.191 µM, a TGI (ACHN renal) of 0.717 µM and a GI50 (SNB-75 CNS) of 0.48 µM. The TGI (SNB-75 CNS) was 3.3 µM, the GI50 (MCF7 breast) was 0.0766 µM and the TGI (MCF7 breast) was 1.35 µM. For the same compound, the GI50 (OVCAR-4 ovarian) was 1.59 µM, the TGI (OVCAR-4 ovarian) was 3.67 µM and the GI50 (HCT-15 colon) was 0.402 µM. The TGI (HCT-15 colon) was 1.81 µM, the GI50 (DU-145 prostate) was 0.475 µM and the TGI (DU-145 prostate) was 2.44 µM. It also gave a GI50 (MDA-MB-231 breast) of 0.943 µM, a TGI (MDA-MB-231 breast) of 3.44 µM and a GI50 (SK-MEL-28 melanoma) of 1.82 µM. The TGI (SK-MEL-28 melanoma) was 4.57 µM, the GI50 (A498 renal) was 0.969 µM and the TGI (A498 renal) was 4.11 µM. For the same compound, the GI50 (T-47D breast) was 0.488 µM, the TGI (T-47D breast) was 3.1 µM and the GI50 (M14 melanoma) was 0.736 µM. The TGI (M14 melanoma) was 3.08 µM, the GI50 (786-0 renal) was 0.386 µM and the TGI (786-0 renal) was 1.38 µM. The GI50 (HOP-62 NSCLC) was 0.38 µM, the TGI (HOP-62 NSCLC) was 2.15 µM and the GI50 (MOLT-4 leukemia) was 0.0771 µM. It also gave a TGI (MOLT-4 leukemia) of 8.9 µM, a GI50 (CAKI-1 renal) of 0.216 µM and a TGI (CAKI-1 renal) of 1.83 µM. The GI50 (MDA-MB-435) was 1.21 µM, the TGI (MDA-MB-435) was 3.98 µM and the GI50 (A549 NSCLC) was 0.262 µM. The TGI (A549 NSCLC) was 1.55 µM, the GI50 (RPMI-8226 leukemia) was 0.474 µM and the TGI (RPMI-8226 leukemia) was 2.87 µM. For the same compound, the GI50 (OVCAR-5 ovarian) was 1.02 µM, the TGI (OVCAR-5 ovarian) was 3.07 µM and the GI50 (SNB-19 CNS) was 0.453 µM. It also gave a TGI (SNB-19 CNS) of 3.89 µM, a GI50 (UACC-257 melanoma) of 1.78 µM and a TGI (UACC-257 melanoma) of 5.24 µM. It also gave a GI50 (CCRF-CEM leukemia) of 0.19 µM, a TGI (CCRF-CEM leukemia) of 4.61 µM and a GI50 (RXF 393 renal) of 0.855 µM. It also gave a TGI (RXF 393 renal) of 2.59 µM, a GI50 (BT-549 breast) of 1.11 µM and a TGI (BT-549 breast) of 3.88 µM. It also gave a GI50 (LOX IMVI melanoma) of 0.206 µM, a TGI (LOX IMVI melanoma) of 0.923 µM and a GI50 (OVCAR-8 ovarian) of 0.801 µM. It also gave a TGI (OVCAR-8 ovarian) of 3.83 µM, a GI50 (OVCAR-3 ovarian) of 1.11 µM and a TGI (OVCAR-3 ovarian) of 3.8 µM. For the same compound, the GI50 (SK-OV-3 ovarian) was 0.939 µM, the TGI (SK-OV-3 ovarian) was 2.58 µM and the GI50 (SF-539 CNS) was 0.581 µM. It also gave a TGI (SF-539 CNS) of 1.92 µM, a GI50 (NCI/ADR-RES ovarian) of 0.609 µM and a TGI (NCI/ADR-RES ovarian) of 3.52 µM. The GI50 (TK-10 renal) was 1.56 µM, the TGI (TK-10 renal) was 4.66 µM and the GI50 (HCT-116 colon) was 0.284 µM. The TGI (HCT-116 colon) was 1.4 µM, the GI50 (KM12 colon) was 1.4 µM and the TGI (KM12 colon) was 5.73 µM. The GI50 (SR leukemia) was 0.117 µM, the TGI (SR leukemia) was 1.79 µM and the GI50 (UACC-62 melanoma) was 0.561 µM. The TGI (UACC-62 melanoma) was 2.26 µM, the GI50 (NCI-H226 lung) was 0.751 µM and the TGI (NCI-H226 lung) was 2.02 µM. It also gave a GI50 (NCI-H522 lung) of 0.275 µM, a TGI (NCI-H522 lung) of 1.74 µM and a GI50 (SF-268 CNS) of 1.06 µM. For the same compound, the TGI (SF-268 CNS) was 8 µM, the GI50 (SK-MEL-5 melanoma) was 1.14 µM and the TGI (SK-MEL-5 melanoma) was 2.65 µM. It also gave a GI50 (HCC-2998 colon) of 0.715 µM, a TGI (HCC-2998 colon) of 2.58 µM and a GI50 (HS 578T breast) of 2.49 µM. For the same compound, the TGI (HS 578T breast) was 13.9 µM, the GI50 (NCI-H460 lung) was 0.104 µM and the TGI (NCI-H460 lung) was 0.8 µM. For the same compound, the GI50 (COLO 205 colon) was 0.57 µM, the TGI (COLO 205 colon) was 3.48 µM and the GI50 (SW-620 colon) was 0.227 µM. For the same compound, the TGI (SW-620 colon) was 1.86 µM, the GI50 (U251 CNS) was 0.346 µM and the TGI (U251 CNS) was 2.36 µM. The GI50 (HT29 colon) was 0.495 µM, the TGI (HT29 colon) was 2.1 µM and the GI50 (HL-60(TB) leukemia) was 0.199 µM. The TGI (HL-60(TB) leukemia) was 1.68 µM, the GI50 (K-562 leukemia) was 0.229 µM and the TGI (K-562 leukemia) was 14.5 µM. It also gave a GI50 (SK-MEL-2 melanoma) of 3.68 µM, a TGI (SK-MEL-2 melanoma) of 8.4 µM and a GI50 (SN12C renal) of 0.297 µM. For the same compound, the TGI (SN12C renal) was 2.69 µM, the GI50 (NCI-H23 lung) was 0.577 µM and the TGI (NCI-H23 lung) was 1.95 µM. It also gave a GI50 (MALME-3M melanoma) of 1.03 µM, a TGI (MALME-3M melanoma) of 3.15 µM and a GI50 (HOP-92 NSCLC) of 1.75 µM. It also gave a TGI (HOP-92 NSCLC) of 7.36 µM, a GI50 (PC-3 prostate) of 0.76 µM and a TGI (PC-3 prostate) of 4.93 µM. The GI50 (UO-31 renal) was 0.304 µM and the TGI (UO-31 renal) was 1.59 µM.
